Target: ADORA3 (Homo sapiens (Human), UniProt P0DMS8)
Assay: Intracellular calcium release assay (FLIPR)
Type: cell-based
Conditions: for EC50: CHO-K1 cells, Fluo-4, top concentration 10 μM, read-out: Cell Calcium Assay EC50; for Cell Calcium Efficacy (%): percentage of the response to NECA
In short: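 Cells stably expressing ADORA3 (20,000/well, 16–20 h) were loaded with Fluo-4 Direct plus 2.5 mM probenecid for 50 min at 37 °C and 10 min at RT. Compounds (10-point, 3-fold series) were added on FLIPR and the Max–Min fluorescence taken. Activation % was set against high-agonist and DMSO wells, with variable-slope EC50 and efficacy relative to NECA.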

ADORA3, sequence (P0DMS8 whole entry): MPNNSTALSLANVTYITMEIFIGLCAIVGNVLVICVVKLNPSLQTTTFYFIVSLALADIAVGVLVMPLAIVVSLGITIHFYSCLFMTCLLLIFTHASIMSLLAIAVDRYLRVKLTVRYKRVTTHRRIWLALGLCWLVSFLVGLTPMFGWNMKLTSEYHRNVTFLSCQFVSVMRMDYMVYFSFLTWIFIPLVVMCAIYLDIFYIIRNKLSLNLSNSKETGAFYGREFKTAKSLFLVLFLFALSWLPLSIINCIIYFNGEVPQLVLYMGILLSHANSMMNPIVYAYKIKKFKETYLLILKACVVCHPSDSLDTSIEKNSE

| SMILES | EC50 | Cell Calcium Efficacy (%) |
| --- | --- | --- |
| CCNc1cc(C#CC2CC2)nc2c1ncn2[C@H]1[C@H](O)[C@H](O)[C@@H]2C[C@@H]21 [Compound 46, (1R,2R,3S,4R,5S)-4-(5-(cyclopropylethynyl)-7-(ethylamino)-3H-imidazo[4,5-b]pyridin-3-yl)bicyclo[3.1.0]hexane-2,3-diol] | ≥ 10000 nM | 4.8% |
| O[C@@H]1[C@H](O)[C@@H]2C[C@@H]2[C@H]1n1cnc2c(NCC(F)F)nc(Cl)nc21 [Compound 35, (1R,2R,3S,4R,5S)-4-(2-chloro-6-((2,2-difluoroethyl)amino)-9H-purin-9-yl)bicyclo[3.1.0]hexane-2,3-diol] | 4.7 nM | 46.8% |
| Cc1c(Cl)nc2c(ncn2[C@H]2[C@H](O)[C@H](O)[C@@H]3C[C@@H]32)c1NCC(F)F [Compound 60, (1R,2R,3S,4R,5S)-4-(5-chloro-7-((2,2-difluoroethyl)amino)-6-methyl-3H-imidazo[4,5-b]pyridin-3-yl)bicyclo[3.1.0]hexane-2,3-diol] | > 10000 nM | 10% |
| O[C@@H]1[C@H](O)[C@@H]2C[C@@H]2[C@H]1n1cnc2c(NCC(F)F)cc(Cl)nc21 [Compound 40, (1R,2R,3S,4R,5S)-4-(5-chloro-7-((2,2-difluoroethyl)amino)-3H-imidazo[4,5-b]pyridin-3-yl)bicyclo[3.1.0]hexane-2,3-diol] | 6.1 nM | 55.9% |

— patent US20230416245A1, “ADENOSINE ANALOGS FOR THE TREATMENT OF DISEASE” (BIOINTERVENE, INC., priority 2020, published 2023)
